Values joined by “and” are separate entries in the source; they are usually repeats but may differ in a detail not shown here. Equal values may be shown once.
Tests used:
CDK2 = CDK2 (Homo sapiens, UniProt P24941); experiment: CDK2 inhibition; assay type: biochemical; settings: two numbers = two different lots of the compound
HDAC 1 = HDAC 1 (Homo sapiens, UniProt Q13547); experiment: HDAC 1 fluorescence assay with about 3 hours preincubation; assay type: biochemical; settings: 3-hour preincubation of enzyme and compound; two numbers = two different lots of the compound; read-out: HDAC 1 inhibitory activity (IC50 [μM]) (3-hour preincubation)
HDAC 1, sequence (Q13547 whole entry, species assumed): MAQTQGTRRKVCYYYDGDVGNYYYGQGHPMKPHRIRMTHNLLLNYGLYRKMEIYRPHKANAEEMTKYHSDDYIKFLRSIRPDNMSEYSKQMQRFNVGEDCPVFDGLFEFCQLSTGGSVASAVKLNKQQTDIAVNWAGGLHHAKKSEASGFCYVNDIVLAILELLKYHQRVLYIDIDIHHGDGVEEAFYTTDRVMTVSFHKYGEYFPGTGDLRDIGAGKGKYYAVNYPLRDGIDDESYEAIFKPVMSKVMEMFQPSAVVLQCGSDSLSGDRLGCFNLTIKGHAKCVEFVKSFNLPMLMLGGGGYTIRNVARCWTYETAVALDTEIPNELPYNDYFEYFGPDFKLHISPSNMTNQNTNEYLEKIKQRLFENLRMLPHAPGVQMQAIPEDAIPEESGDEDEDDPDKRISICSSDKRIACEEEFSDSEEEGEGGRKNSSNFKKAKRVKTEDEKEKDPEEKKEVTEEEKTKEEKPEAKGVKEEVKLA
Method: The second assay is similar to the first assay described above, except that preincubation is carried out for about 3 hours after the enzyme is introduced. The test compound was suspended in, and titrated in DMSO. It was then spotted into a 384-well test plate. The enzyme, HDAC 1, was diluted in the same assay buffer as used in the previous assay and added to the pre-spotted compound. The enzyme/compound mix was incubated at room temperature for about 3 hours. The peptide substrate containing a fluorophore/quencher pair was diluted in the assay buffer and added to the compound/enzyme mix initiating the reaction. The reaction incubated at room temperature for 45 minutes. A concentrated developer solution was diluted in the assay buffer, and added to the reaction. The reaction was incubated at room temperature for about 15 minutes and relative fluorescence was read on an instrument reader.
Where two numbers are given, the values are reported for measurements on two different lots of the compound.

Structure (SMILES) | IC50 (CDK2) | IC50 (HDAC 1)
COC(=O)c1ccc2c(c1)/C(=C(\C)Nc1ccc(C(=O)Nc3ccccc3N)cc1)C(=O)N2 [Example 1, 3-{1-[4-(2-Amino-phenylcarbamoyl)-phenylamino]-ethylidene}-2-oxo-2,3-dihydro-1H-indole-5-carboxylic acid methyl ester] | 0.043 µM | 0.033 µM
COC(=O)c1ccc2c(c1)/C(=C/Nc1ccc(C(=O)Nc3ccccc3N)cc1)C(=O)N2 [Example 2, 3-{[4-(2-Amino-phenylcarbamoyl)-phenylamino]-methylene}-2-oxo-2,3-dihydro-1H-indole-5-carboxylic acid methyl ester] | 0.07 µM | 0.17 µM
C/C(Nc1ccc(C(=O)Nc2ccccc2N)cc1)=C1/C(=O)Nc2ccc(C#N)cc21 [Example 3, N-(2-Amino-phenyl)-4-[1-(5-cyano-2-oxo-1,2-dihydro-indol-3-ylidene)-ethylamino]-benzamide] | 0.01 µM and 0.02 µM | 0.029 µM and 0.021 µM
CC(=O)c1ccc2c(c1)/C(=C(\C)Nc1ccc(C(=O)Nc3ccccc3N)cc1)C(=O)N2 [Example 4, 4-[1-(5-Acetyl-2-oxo-1,2-dihydro-indol-3-ylidene)-ethylamino]-N-(2-amino-phenyl)-benzamide] | 0.01 µM | 0.064 µM and 0.03 µM
C/C(Nc1ccc(C(=O)Nc2ccccc2N)cc1)=C1/C(=O)Nc2ccc(C(=O)C(C)C)cc21 [Example 5, N-(2-Amino-phenyl)-4-[1-(5-isobutyryl-2-oxo-1,2-dihydro-indol-3-ylidene)-ethylamino]-benzamide] | 0.02 µM | 0.335 µM
C/C(Nc1ccc(C(=O)Nc2ccccc2N)cc1)=C1/C(=O)Nc2ccc(S(=O)(=O)N3CCOCC3)cc21 [Example 6, N-(2-Amino-phenyl)-4-{1-[5-(morpholine-4-sulfonyl)-2-oxo-1,2-dihydro-indol-3-ylidene]-ethylamino}-benzamide] | 0.52 µM | 0.186 µM
C/C(Nc1ccc(C(=O)Nc2ccccc2N)cc1)=C1/C(=O)Nc2ccc(-c3csc(C)n3)cc21 [Example 7, N-(2-Amino-phenyl)-4-{1-[5-(2-methyl-thiazol-4-yl)-2-oxo-1,2-dihydro-indol-3-ylidene]-ethylamino}-benzamide] | > 40 µM | 0.232 µM
CC(Nc1ccc(C(=O)Nc2ccccc2N)cc1)=C1C(=O)Nc2ccc(S(C)(=O)=O)cc21 [Example 8, N-(2-Amino-phenyl)-4-[1-(5-methanesulfonyl-2-oxo-1,2-dihydro-indol-3-ylidene)-ethylamino]-benzamide] | 0.13 µM | 0.1 µM
CN(C)CCNC(=O)c1ccc2c(c1)/C(=C/Nc1ccc(C(=O)Nc3ccccc3N)cc1)C(=O)N2 [Example 9, 3-{[4-(2-Amino-phenylcarbamoyl)-phenylamino]-methylene}-2-oxo-2,3-dihydro-1H-indole-5-carboxylic acid (2-dimethylamino-ethyl)-amide] | 0.25 µM | 0.063 µM
C/C(Nc1ccc(C(=O)Nc2ccccc2N)cc1)=C1/C(=O)Nc2ccc(C(=O)O)cc21 [Example 10, 3-{1-[4-(2-Amino-phenylcarbamoyl)-phenylamino]-ethylidene}-2-oxo-2,3-dihydro-1H-indole-5-carboxylic acid] | 0.44 µM | 0.181 µM
COC(=O)c1ccc2c(c1)/C(=C(\C)Nc1ccc(C(=O)NO)cc1)C(=O)N2 [Example 11, 3-[1-(4-Hydroxycarbamoyl-phenylamino)-ethylidene]-2-oxo-2,3-dihydro-1H-indole-5-carboxylic acid methyl ester] | > 40 µM | 0.635 µM
C/C(Nc1ccc(C(=O)Nc2ccccc2N)cc1)=C1/C(=O)Nc2ccc(C(=O)N(C)C)cc21 [Example 12, 3-{1-[4-(2-Amino-phenylcarbamoyl)-phenylamino]-ethylidene}-2-oxo-2,3-dihydro-1H-indole-5-carboxylic acid dimethylamide] | 0.34 µM | 0.071 µM
C/C(Nc1ccc(C(=O)Nc2ccccc2N)cc1)=C1/C(=O)Nc2ccc(C(C)O)cc21 (centres unmarked) [Example 13, N-(2-Amino-phenyl)-4-{1-[5-(1-hydroxy-ethyl)-2-oxo-1,2-dihydro-indol-3-ylidene]-ethylamino}-benzamide] | 1.01 µM | 0.036 µM
